# Columns and labels:
# [1] = biological target: T1, Dihydrofolate reductase (Mus musculus) (UniProt P00375); conditions: L1210
# T1 sequence (whole entry): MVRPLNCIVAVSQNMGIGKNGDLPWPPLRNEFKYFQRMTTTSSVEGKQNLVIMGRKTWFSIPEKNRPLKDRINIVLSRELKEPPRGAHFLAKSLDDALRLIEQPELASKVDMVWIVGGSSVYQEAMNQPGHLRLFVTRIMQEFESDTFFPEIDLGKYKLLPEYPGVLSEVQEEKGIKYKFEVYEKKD
# Description: Compound was tested for its ability to inhibit dihydrofolate reductase purified from murine L1210 cells, activity expressed as IC50/[E]
# Thymidylate synthase = biological target: T2, Thymidylate synthase (Lactobacillus casei, UniProt P00469); experiment: Compound was tested for its ability to inhibit thymidylate synthetase isolated from MTX-resistant Lactobacillus casei; parameters: species or system Lacticaseibacillus casei
# T2 sequence (P00469 whole entry): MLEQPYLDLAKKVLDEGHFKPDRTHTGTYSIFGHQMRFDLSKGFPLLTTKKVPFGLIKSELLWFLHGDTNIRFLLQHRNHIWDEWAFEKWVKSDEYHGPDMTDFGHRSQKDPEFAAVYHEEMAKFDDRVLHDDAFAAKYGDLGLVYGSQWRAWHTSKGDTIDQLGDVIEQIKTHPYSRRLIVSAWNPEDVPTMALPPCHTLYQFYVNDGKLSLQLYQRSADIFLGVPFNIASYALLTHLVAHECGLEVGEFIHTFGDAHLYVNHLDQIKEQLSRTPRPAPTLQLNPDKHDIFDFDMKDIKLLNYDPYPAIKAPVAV
# L1210 = experiment: Compound was tested for its ability to inhibit L1210 cell growth; format: functional, cell-based; conditions: Mus musculus
# Dihydrofolate reductase = biological target: T3, Dihydrofolate reductase (Mus musculus, UniProt P00375); experiment: biochemical
# T3 sequence (P00375 whole entry): T1 sequence (whole entry)
# Description: Compound was tested for its ability to inhibit dihydrofolate reductase purified from murine L1210 cells
IC50/[E] [1],Ki (Thymidylate synthase),IC50 (L1210),IC50 (Dihydrofolate reductase),Compound
12,172 nM,> 100000 nM,840 nM,CN(Cc1cnc2nc(N)nc(N)c2n1)c1ccc(C(=O)NCCCC(=O)NCCCC(=O)NCCCC(=O)NCCCC(=O)NCCCC(=O)NC(CCC(=O)O)C(=O)O)cc1 (stereo unspecified)
7.7,189 nM,> 100000 nM,540 nM,CN(Cc1cnc2nc(N)nc(N)c2n1)c1ccc(C(=O)NCCCC(=O)NCCCC(=O)NCCCC(=O)NCCCC(=O)NC(CCC(=O)O)C(=O)O)cc1 (stereo unspecified)
0.82,336 nM,530 nM,82 nM,CN(Cc1cnc2nc(N)nc(N)c2n1)c1ccc(C(=O)NCCCC(=O)NC(CCC(=O)O)C(=O)O)cc1 (stereo unspecified)
1.3,205 nM,5600 nM,90 nM,CN(Cc1cnc2nc(N)nc(N)c2n1)c1ccc(C(=O)NCCCC(=O)NCCCC(=O)NC(CCC(=O)O)C(=O)O)cc1 (stereo unspecified)
4.4,130 nM,29000 nM,310 nM,CN(Cc1cnc2nc(N)nc(N)c2n1)c1ccc(C(=O)NCCCC(=O)NCCCC(=O)NCCCC(=O)NC(CCC(=O)O)C(=O)O)cc1 (stereo unspecified)

Compound,IC50/[E] [1],Ki (Thymidylate synthase),IC50 (L1210),IC50 (Dihydrofolate reductase)
CN(Cc1cnc2nc(N)nc(N)c2n1)c1ccc(C(=O)N[C@@H](CCC(=O)O)C(=O)O)cc1 [METHOTREXATE],–,–,20 nM,–

# Source: ChEMBL document CHEMBL1123226, “Methotrexate analogues. 29. Effect of gamma-aminobutyric acid spacers between the pteroyl and glutamate moieties on enzyme binding and cell growth inhibition” (J Med Chem, 1986)
